Entries after “also recorded” stand apart in the source; their conditions may differ.
Experiments:
[1] = tested on: SF-1 target genes in HEK293 cells bearing tetracycline-inducible SF-1; assay: RT-qPCR analysis of SF-1 target genes; type: cell-based, human; set-up: key to relative NR0B2 expression vs DMSO + TET control / relative StAR expression vs DMSO + TET control: ns = not significant; *p<0.05; ****p<0.0001; conditions: for relative CYP11A1 expression vs DMSO + TET control / relative NR0B2 expression vs DMSO + TET control / relative StAR expression vs DMSO + TET control: 24 h, HEK293 Tet-inducible SF-1
AKT1 = target: T1, AKT1 (Homo sapiens, UniProt P31749); assay: Protein kinase profiling, Mobility Shift Assay (Carna Biosciences); type: biochemical; conditions: read-out: % Inhibition at 1.0 μM 14
T1 construct: purchased Carna Biosciences
Protocol: (§1) Protein kinase profiling of compound 14 was executed by Carna Biosciences. Briefly, compound 14 was prepared by dissolving it in dimethyl sulfoxide (DMSO) and then further diluting it in DMSO to a concentration of […]. That stock solution was further diluted 25-fold with kinase assay buffer (20 mM HEPES, 0.01% Triton X-100, 2 mM DTT, pH 7.5) to make the final 1 μM compound 14 solution. Reference compounds for the assay controls were prepared similarly. The off-chip Mobility Shift Assay (MSA) was prepared with 5 μL of 4× compound solution, 5 μL of 4× substrate/ATP/metal solution, and 10 μL of 2× kinase solution, prepared with assay buffer (20 mM HEPES, 0.01% Triton X-100, 2 mM DTT, pH 7.5). The components were mixed and incubated in a polypropylene 384-well microplate for 1 h or 5 h at room temperature, depending on the kinase being tested. 60 μL of termination buffer (QuickScout Screening Assist MSA; Carna Biosciences) was added to the well to stop the reactions, and the mixture was applied to a LabChip3000 system (Caliper Life Sciences. The product and substrate peptide peaks were separated and quantitated. The kinase reactions were evaluated by the product ratio, calculated from the peak heights of the product (P) and substrate (S) peptides (P/(P + S)). Product ratio values for the control reaction were set as 0% inhibition, and the readout value of the background (no kinase added) was set as 100% inhibition. The percent inhibition of each test solution was then calculated as reported in Figure A. The phylogenetic tree was generated using KinMap at https://bmcbioinformatics.biomedcentral.com/articles/10.1186/s12859-016-1433-7.

AurA = target: T2, AurA (Homo sapiens, UniProt O14965); assay: as above; type: biochemical; conditions: read-out: % Inhibition at 1.0 μM 14
T2 construct: purchased Carna Biosciences
Protocol: as §1

CSK = target: T3, CSK (Homo sapiens, UniProt P41240); assay: as above; type: biochemical; conditions: read-out: % Inhibition at 1.0 μM 14
T3 construct: purchased Carna Biosciences
Protocol: as §1

CaMK4 = target: T4, CaMK4 (Homo sapiens, UniProt Q16566); assay: as above; type: biochemical; conditions: read-out: % Inhibition at 1.0 μM 14
T4 construct: purchased Carna Biosciences
Protocol: as §1

EGFR = target: T5, EGFR (Homo sapiens, UniProt P00533); assay: as above; type: biochemical; conditions: read-out: % Inhibition at 1.0 μM 14
T5 construct: purchased Carna Biosciences
Protocol: as §1

Erk2 = target: T6, Erk2 (Homo sapiens, UniProt P28482); assay: as above; type: biochemical; conditions: read-out: % Inhibition at 1.0 μM 14
T6 construct: purchased Carna Biosciences
Protocol: as §1

FGFR1 = target: T7, FGFR1 (Homo sapiens, UniProt P11362); assay: as above; type: biochemical; conditions: read-out: % Inhibition at 1.0 μM 14
T7 construct: purchased Carna Biosciences
Protocol: as §1

IGF1R = target: T8, IGF1R (Homo sapiens, UniProt P08069); assay: as above; type: biochemical; conditions: read-out: % Inhibition at 1.0 μM 14
T8 construct: purchased Carna Biosciences
Protocol: as §1

IKKb = target: T9, IKKb (Homo sapiens, UniProt O14920); assay: as above; type: biochemical; conditions: read-out: % Inhibition at 1.0 μM 14
T9 construct: purchased Carna Biosciences
Protocol: as §1

ITK = target: T10, ITK (Homo sapiens, UniProt Q08881); assay: as above; type: biochemical; conditions: read-out: % Inhibition at 1.0 μM 14
T10 construct: purchased Carna Biosciences
Protocol: as §1

JAK3 = target: T11, JAK3 (Homo sapiens, UniProt P52333); assay: as above; type: biochemical; conditions: read-out: % Inhibition at 1.0 μM 14
T11 construct: purchased Carna Biosciences
Protocol: as §1

JNK2 = target: T12, JNK2 (Homo sapiens, UniProt P45984); assay: as above; type: biochemical; conditions: read-out: % Inhibition at 1.0 μM 14
T12 construct: purchased Carna Biosciences
Protocol: as §1

KDR = target: T13, KDR (Homo sapiens, UniProt P35968); assay: as above; type: biochemical; conditions: read-out: % Inhibition at 1.0 μM 14
T13 construct: purchased Carna Biosciences
Protocol: as §1

LCK = target: T14, LCK (Homo sapiens, UniProt P06239); assay: as above; type: biochemical; conditions: read-out: % Inhibition at 1.0 μM 14
T14 construct: purchased Carna Biosciences
Protocol: as §1

MER = target: T15, MER (Homo sapiens, UniProt Q12866); assay: as above; type: biochemical; conditions: read-out: % Inhibition at 1.0 μM 14
T15 construct: purchased Carna Biosciences
Protocol: as §1

MET = target: T16, MET (Homo sapiens, UniProt P08581); assay: as above; type: biochemical; conditions: read-out: % Inhibition at 1.0 μM 14
T16 construct: purchased Carna Biosciences
Protocol: as §1

MST1 = target: T17, MST1 (Homo sapiens, UniProt Q13043); assay: as above; type: biochemical; conditions: read-out: % Inhibition at 1.0 μM 14
T17 construct: purchased Carna Biosciences
Protocol: as §1

PKCa = target: T18, PKCa (Homo sapiens, UniProt P17252); assay: as above; type: biochemical; conditions: read-out: % Inhibition at 1.0 μM 14
T18 construct: purchased Carna Biosciences
Protocol: as §1

ROCK1 = target: T19, ROCK1 (Homo sapiens, UniProt Q13464); assay: as above; type: biochemical; conditions: read-out: % Inhibition at 1.0 μM 14
T19 construct: purchased Carna Biosciences
Protocol: as §1

SRC = target: T20, SRC (Homo sapiens, UniProt P12931); assay: as above; type: biochemical; conditions: read-out: % Inhibition at 1.0 μM 14
T20 construct: purchased Carna Biosciences
Protocol: as §1

SYK = target: T21, SYK (Homo sapiens, UniProt P43405); assay: as above; type: biochemical; conditions: read-out: % Inhibition at 1.0 μM 14
T21 construct: purchased Carna Biosciences
Protocol: as §1

TRKA = target: T22, TRKA (Homo sapiens, UniProt P04629); assay: as above; type: biochemical; conditions: read-out: % Inhibition at 1.0 μM 14
T22 construct: purchased Carna Biosciences
Protocol: as §1

S6Kb = assay: as above; type: biochemical, human
Protocol: Protein kinase profiling of compound 14 was executed by Carna Biosciences. Briefly, compound 14 was prepared by dissolving it in dimethyl sulfoxide (DMSO) and then further diluting it in DMSO to a concentration of 25 μM. That stock solution was further diluted 25-fold with kinase assay buffer (20 mM HEPES, 0.01% Triton X-100, 2 mM DTT, pH 7.5) to make the final 1 μM compound 14 solution. Reference compounds for the assay controls were prepared similarly. The off-chip Mobility Shift Assay (MSA) was prepared with 5 μL of 4× compound solution, 5 μL of 4× substrate/ATP/metal solution, and 10 μL of 2× kinase solution, prepared with assay buffer (20 mM HEPES, 0.01% Triton X-100, 2 mM DTT, pH 7.5). The components were mixed and incubated in a polypropylene 384-well microplate for 1 h or 5 h at room temperature, depending on the kinase being tested. […]

T6 sequence (P28482 whole entry): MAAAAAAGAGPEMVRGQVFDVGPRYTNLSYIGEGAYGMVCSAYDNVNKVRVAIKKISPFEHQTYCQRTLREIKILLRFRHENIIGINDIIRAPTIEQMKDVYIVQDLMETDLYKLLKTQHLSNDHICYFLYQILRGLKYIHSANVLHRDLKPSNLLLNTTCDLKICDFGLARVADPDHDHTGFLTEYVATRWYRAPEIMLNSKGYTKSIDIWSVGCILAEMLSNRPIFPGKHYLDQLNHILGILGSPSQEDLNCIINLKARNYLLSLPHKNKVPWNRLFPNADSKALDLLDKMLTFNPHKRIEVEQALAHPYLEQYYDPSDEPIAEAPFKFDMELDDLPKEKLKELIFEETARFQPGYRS
T11 sequence (P52333 whole entry): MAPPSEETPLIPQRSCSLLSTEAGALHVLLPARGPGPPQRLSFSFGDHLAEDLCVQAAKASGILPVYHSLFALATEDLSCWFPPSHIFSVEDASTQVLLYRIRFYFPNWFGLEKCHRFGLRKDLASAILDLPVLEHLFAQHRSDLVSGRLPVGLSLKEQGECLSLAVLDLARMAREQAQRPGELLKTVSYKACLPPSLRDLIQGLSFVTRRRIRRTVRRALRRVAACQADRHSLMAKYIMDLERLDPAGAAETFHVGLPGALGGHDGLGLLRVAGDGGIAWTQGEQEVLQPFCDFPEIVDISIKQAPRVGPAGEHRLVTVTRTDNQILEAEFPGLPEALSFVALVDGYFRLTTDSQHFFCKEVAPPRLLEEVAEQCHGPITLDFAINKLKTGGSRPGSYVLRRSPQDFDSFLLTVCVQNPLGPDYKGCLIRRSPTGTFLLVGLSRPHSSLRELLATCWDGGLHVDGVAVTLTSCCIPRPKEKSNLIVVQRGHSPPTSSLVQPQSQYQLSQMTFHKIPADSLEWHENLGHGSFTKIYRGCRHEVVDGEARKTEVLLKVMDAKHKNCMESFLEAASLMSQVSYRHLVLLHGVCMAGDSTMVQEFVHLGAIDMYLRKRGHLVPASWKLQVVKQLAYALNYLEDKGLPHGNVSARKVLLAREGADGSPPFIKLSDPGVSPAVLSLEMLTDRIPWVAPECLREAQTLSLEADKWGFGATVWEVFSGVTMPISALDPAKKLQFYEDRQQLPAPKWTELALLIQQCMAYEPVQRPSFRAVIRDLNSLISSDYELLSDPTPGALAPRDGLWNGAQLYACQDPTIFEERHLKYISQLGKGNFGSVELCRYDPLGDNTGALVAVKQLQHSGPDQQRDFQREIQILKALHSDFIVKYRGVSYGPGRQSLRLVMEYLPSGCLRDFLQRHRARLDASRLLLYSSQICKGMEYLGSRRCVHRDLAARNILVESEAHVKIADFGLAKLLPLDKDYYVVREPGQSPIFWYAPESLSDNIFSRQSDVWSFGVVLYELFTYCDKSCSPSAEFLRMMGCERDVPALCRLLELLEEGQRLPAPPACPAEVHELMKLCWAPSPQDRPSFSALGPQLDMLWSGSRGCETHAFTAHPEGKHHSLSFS
T7 sequence (P11362 22-822): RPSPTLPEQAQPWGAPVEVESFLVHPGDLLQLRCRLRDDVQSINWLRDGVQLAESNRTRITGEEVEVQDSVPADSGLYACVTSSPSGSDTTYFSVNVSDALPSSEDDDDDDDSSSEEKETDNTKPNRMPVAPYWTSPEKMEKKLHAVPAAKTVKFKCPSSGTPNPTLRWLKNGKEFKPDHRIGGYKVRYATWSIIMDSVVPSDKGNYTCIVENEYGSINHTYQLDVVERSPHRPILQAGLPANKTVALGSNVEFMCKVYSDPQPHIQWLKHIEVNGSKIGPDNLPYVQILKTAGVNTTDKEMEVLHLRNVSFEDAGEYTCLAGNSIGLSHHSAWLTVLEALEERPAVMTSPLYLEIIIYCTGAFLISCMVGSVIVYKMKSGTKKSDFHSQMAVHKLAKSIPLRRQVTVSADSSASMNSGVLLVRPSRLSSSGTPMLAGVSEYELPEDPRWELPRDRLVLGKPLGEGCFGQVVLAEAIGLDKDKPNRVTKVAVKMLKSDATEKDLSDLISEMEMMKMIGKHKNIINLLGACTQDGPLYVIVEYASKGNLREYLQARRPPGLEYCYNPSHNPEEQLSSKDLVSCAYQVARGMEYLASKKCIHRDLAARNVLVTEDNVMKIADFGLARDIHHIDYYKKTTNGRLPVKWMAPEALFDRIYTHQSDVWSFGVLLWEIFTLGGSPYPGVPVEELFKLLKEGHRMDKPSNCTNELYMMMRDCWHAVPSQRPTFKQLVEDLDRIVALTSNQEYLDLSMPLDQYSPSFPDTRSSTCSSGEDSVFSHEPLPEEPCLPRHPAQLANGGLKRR
T10 sequence (Q08881 whole entry): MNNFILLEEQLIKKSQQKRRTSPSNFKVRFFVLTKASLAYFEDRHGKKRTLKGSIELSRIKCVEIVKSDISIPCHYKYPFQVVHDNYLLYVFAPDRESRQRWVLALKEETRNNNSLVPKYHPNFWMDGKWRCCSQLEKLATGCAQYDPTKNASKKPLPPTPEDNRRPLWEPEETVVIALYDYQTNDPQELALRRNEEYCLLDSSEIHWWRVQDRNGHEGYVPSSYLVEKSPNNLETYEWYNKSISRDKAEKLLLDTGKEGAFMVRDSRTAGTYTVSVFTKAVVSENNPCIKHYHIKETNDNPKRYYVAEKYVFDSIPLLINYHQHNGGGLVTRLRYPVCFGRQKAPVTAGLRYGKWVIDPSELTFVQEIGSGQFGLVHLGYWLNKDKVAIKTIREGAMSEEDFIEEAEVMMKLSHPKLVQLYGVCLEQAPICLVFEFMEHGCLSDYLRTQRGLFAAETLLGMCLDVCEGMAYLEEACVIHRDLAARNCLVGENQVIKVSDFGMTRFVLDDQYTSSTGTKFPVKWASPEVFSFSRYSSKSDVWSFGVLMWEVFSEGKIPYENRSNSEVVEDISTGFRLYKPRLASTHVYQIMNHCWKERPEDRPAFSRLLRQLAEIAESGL
T2 sequence (O14965 whole entry): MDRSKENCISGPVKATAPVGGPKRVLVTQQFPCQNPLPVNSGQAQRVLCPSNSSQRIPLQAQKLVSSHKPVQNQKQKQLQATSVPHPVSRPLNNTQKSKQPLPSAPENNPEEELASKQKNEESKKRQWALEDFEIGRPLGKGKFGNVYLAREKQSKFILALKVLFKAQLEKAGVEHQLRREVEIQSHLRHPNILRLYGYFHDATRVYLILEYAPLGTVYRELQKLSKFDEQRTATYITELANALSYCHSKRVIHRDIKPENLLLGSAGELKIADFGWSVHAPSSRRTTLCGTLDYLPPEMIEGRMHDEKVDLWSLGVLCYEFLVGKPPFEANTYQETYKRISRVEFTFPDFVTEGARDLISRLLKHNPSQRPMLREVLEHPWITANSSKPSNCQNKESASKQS
T13 sequence (P35968 20-1356): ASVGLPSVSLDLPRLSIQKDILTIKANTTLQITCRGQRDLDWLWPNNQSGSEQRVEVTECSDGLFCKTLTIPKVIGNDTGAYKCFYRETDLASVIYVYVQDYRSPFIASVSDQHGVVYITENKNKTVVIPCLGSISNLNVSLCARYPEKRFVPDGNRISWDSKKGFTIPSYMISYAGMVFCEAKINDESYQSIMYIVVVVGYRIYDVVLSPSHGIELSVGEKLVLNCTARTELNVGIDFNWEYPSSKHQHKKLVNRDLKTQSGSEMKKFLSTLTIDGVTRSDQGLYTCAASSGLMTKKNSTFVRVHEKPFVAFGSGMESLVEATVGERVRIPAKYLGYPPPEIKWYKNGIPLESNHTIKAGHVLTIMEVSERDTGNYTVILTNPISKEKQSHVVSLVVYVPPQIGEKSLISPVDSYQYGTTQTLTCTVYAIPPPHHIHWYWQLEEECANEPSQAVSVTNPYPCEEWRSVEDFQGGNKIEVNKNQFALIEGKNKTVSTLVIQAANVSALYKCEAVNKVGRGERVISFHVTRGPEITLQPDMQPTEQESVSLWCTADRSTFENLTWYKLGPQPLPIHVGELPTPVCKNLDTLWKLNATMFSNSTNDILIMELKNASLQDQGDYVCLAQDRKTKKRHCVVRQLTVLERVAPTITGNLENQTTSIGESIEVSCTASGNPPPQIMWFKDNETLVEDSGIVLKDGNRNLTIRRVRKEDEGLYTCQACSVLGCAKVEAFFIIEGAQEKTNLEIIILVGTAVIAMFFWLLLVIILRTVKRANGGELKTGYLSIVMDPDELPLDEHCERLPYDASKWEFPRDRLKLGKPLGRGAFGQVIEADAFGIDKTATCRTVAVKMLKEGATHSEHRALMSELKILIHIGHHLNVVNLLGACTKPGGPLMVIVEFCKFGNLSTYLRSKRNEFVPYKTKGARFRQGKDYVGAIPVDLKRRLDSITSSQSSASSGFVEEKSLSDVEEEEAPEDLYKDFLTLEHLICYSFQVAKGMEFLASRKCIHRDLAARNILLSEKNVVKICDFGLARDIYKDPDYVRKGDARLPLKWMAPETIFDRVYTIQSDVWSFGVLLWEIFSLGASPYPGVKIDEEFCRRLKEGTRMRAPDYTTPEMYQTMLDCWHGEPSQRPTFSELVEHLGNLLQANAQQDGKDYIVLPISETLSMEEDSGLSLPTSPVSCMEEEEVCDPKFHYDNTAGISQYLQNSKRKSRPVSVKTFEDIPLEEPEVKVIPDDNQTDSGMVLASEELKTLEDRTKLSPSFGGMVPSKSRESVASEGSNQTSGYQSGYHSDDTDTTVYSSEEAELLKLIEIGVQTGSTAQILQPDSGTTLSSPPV
T12 sequence (P45984 whole entry): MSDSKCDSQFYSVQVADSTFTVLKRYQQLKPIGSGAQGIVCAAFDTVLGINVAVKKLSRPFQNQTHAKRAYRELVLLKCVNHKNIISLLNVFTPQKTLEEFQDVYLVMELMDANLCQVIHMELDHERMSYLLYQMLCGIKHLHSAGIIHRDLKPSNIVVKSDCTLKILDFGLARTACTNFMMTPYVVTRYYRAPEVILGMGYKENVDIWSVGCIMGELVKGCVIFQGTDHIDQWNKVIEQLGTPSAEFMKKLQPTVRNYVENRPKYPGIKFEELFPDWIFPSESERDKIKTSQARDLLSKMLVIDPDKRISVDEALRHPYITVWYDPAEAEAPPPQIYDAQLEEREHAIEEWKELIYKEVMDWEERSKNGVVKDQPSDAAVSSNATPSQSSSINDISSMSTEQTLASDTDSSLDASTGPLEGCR

c1cc(-c2onc3ccc(-c4nnn[nH]4)cc23)cc(C2CCN(C3CCC3)CC2)c1 [Compound 14, 3-(3-(1-Cyclobutylpiperidin-4-yl)phenyl)-5-(1H-tetrazol-5-yl)benzo[c]isoxazole]
relative CYP11A1 expression vs DMSO + TET control ([1]; 10 μM): * (*p<0.05) | relative NR0B2 expression vs DMSO + TET control ([1]; 10 μM): ns | relative StAR expression vs DMSO + TET control ([1]; 10 μM): ns | relative CYP11A1 expression vs DMSO + TET control ([1]; 30 μM): * (*p<0.05) | relative NR0B2 expression vs DMSO + TET control ([1]; 30 μM): * (*p<0.05) | relative StAR expression vs DMSO + TET control ([1]; 30 μM): * (*p<0.05) | relative CYP11A1 expression vs DMSO + TET control ([1]; 50 μM): **** (****p<0.0001) | relative NR0B2 expression vs DMSO + TET control ([1]; 50 μM): **** (****p<0.0001) | relative StAR expression vs DMSO + TET control ([1]; 50 μM): **** (****p<0.0001) | regulation of nuclear receptor SF-1 target genes ([1]; HEK293 cells with Tet-inducible SF-1, 24 h): can regulate these target genes; also recorded: able to regulate nuclear receptor SF-1 target genes; also recorded: did detect changes | inhibition at 1 µM (AKT1): 7.4% | inhibition at 1 µM (AurA): 24.7% | inhibition at 1 µM (CSK): 5.5% | inhibition at 1 µM (CaMK4): -4% | inhibition at 1 µM (EGFR): 3.4% | inhibition at 1 µM (Erk2): -2.2% | inhibition at 1 µM (FGFR1): 40.5% | inhibition at 1 µM (IGF1R): 1.7% | inhibition at 1 µM (IKKb): 0.4% | inhibition at 1 µM (ITK): 5.7% | inhibition at 1 µM (JAK3): 72.8% | inhibition at 1 µM (JNK2): 7.7% | inhibition at 1 µM (KDR): ≥ 75% | inhibition at 1 µM (LCK): 32.7% | inhibition at 1 µM (MER): 72% | inhibition at 1 µM (MET): 34.7% | inhibition at 1 µM (MST1): 51% | inhibition at 1 µM (PKCa): 59.6% | inhibition at 1 µM (ROCK1): 6.1% | inhibition at 1 µM (SRC): 18.4% | inhibition at 1 µM (SYK): -13% | inhibition at 1 µM (TRKA): 35.9% | % Inhibition at 1.0 μM 14 (S6Kb): 9.4%
